Experimental data as given in PubChem BioAssay AID1963974 (Molecular Pharmacology Branch, DTP, NCI, 2024).
pIC50: −log10 of the molar value.

Tested on: 648629-189-R-J1-PDC spheroids with HUVEC/MSC, viability
Test: Anticancer human tumor 648629-189-R-J1-PDC patient-derived bladder carcinoma cell line growth inhibition [PI3K]
Details: for pIC50: curve of first compound; for viability, T/C: stronger effect = lower value
Outline: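 Combination activity was assessed by viability in multicellular tumor spheroids carrying HUVEC and MSC components. Agents were tested with PI3K inhibitors from a Cmax-based top dose (or 10 microM) downward in half-log increments.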

[1] = second compound 0.0316 µM, first compound 0.0316 µM
[2] = second compound 0.0316 µM, first compound 0.1 µM
[3] = second compound 0.0316 µM, first compound 0.316 µM
[4] = second compound 0.0316 µM, first compound 1 µM
[5] = second compound 0.0316 µM, first compound 3.16 µM
[6] = second compound 0.0316 µM, first compound 10 µM
[7] = second compound 0.1 µM, first compound 0.0316 µM
[8] = second compound 0.1 µM, first compound 0.1 µM
[9] = second compound 0.1 µM, first compound 0.316 µM
[10] = second compound 0.1 µM, first compound 1 µM
[11] = second compound 0.1 µM, first compound 3.16 µM
[12] = second compound 0.1 µM, first compound 10 µM
[13] = second compound 0.316 µM, first compound 0.0316 µM
[14] = second compound 0.316 µM, first compound 0.1 µM
[15] = second compound 0.316 µM, first compound 0.316 µM
[16] = second compound 0.316 µM, first compound 1 µM
[17] = second compound 0.316 µM, first compound 3.16 µM
[18] = second compound 0.316 µM, first compound 10 µM
[19] = second compound 1 µM, first compound 0.0316 µM
[20] = second compound 1 µM, first compound 0.1 µM
[21] = second compound 1 µM, first compound 0.316 µM
[22] = second compound 1 µM, first compound 1 µM
[23] = second compound 1 µM, first compound 3.16 µM
[24] = second compound 1 µM, first compound 10 µM
[25] = second compound 3.16 µM, first compound 0.0316 µM
[26] = second compound 3.16 µM, first compound 0.1 µM
[27] = second compound 3.16 µM, first compound 0.316 µM
[28] = second compound 3.16 µM, first compound 1 µM
[29] = second compound 3.16 µM, first compound 3.16 µM
[30] = second compound 3.16 µM, first compound 10 µM
[31] = second compound 10 µM, first compound 0.0316 µM
[32] = second compound 10 µM, first compound 0.1 µM
[33] = second compound 10 µM, first compound 0.316 µM
[34] = second compound 10 µM, first compound 1 µM
[35] = second compound 10 µM, first compound 3.16 µM
[36] = second compound 10 µM, first compound 10 µM
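Further: spheroids exposed to agents for seven days before reading.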
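Wherever viability, T/C is given: percent of vehicle control luminescence where 100% = DMSO treated spheroids.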

Cn1ncc(Cl)c1-c1cc(C(=O)NC(CN)Cc2cccc(F)c2)sc1Cl (stereo unspecified) + CC(Nc1ncnc2nc[nH]c12)c1cc2cccc(Cl)c2c(=O)n1-c1ccccc1
pIC50 (second compound 0.0316 µM): 6.00
pIC50 (second compound 0.1 µM): 6.11
pIC50 (second compound 0.316 µM): 6.15
pIC50 (second compound 1 µM): 6.15
pIC50 (second compound 3.16 µM): 6.19
pIC50 (second compound 10 µM): 6.32
viability, T/C [1]: 129%
viability, T/C [2]: 90.4%
viability, T/C [3]: 68.3%
viability, T/C [4]: 45.8%
viability, T/C [5]: 26.5%
viability, T/C [6]: 10.4%
viability, T/C [7]: 97.8%
viability, T/C [8]: 87.2%
viability, T/C [9]: 71.8%
viability, T/C [10]: 39.9%
viability, T/C [11]: 27.5%
viability, T/C [12]: 9.37%
viability, T/C [13]: 93.9%
viability, T/C [14]: 103%
viability, T/C [15]: 62.8%
viability, T/C [16]: 42.6%
viability, T/C [17]: 23.8%
viability, T/C [18]: 7.95%
viability, T/C [19]: 108%
viability, T/C [20]: 92.2%
viability, T/C [21]: 62.2%
viability, T/C [22]: 42.9%
viability, T/C [23]: 27.2%
viability, T/C [24]: 8.92%
viability, T/C [25]: 97.7%
viability, T/C [26]: 93.8%
viability, T/C [27]: 64.8%
viability, T/C [28]: 36.7%
viability, T/C [29]: 26.5%
viability, T/C [30]: 7.12%
viability, T/C [31]: 99.7%
viability, T/C [32]: 78.2%
viability, T/C [33]: 56.9%
viability, T/C [34]: 37.2%
viability, T/C [35]: 21.3%
viability, T/C [36]: 6.29%

C[C@@H](NC(=O)c1ncnc(N)c1Cl)c1ncc(C(=O)Nc2cc(C(F)(F)F)c(Cl)cn2)s1 + CC(Nc1ncnc2nc[nH]c12)c1cc2cccc(Cl)c2c(=O)n1-c1ccccc1
pIC50 (second compound 0.0316 µM): < 5.00
pIC50 (second compound 0.1 µM): < 5.00
pIC50 (second compound 0.316 µM): < 5.00
pIC50 (second compound 1 µM): < 5.00
pIC50 (second compound 3.16 µM): < 5.00
pIC50 (second compound 10 µM): < 5.00
viability, T/C [1]: 98.8%
viability, T/C [2]: 104%
viability, T/C [3]: 111%
viability, T/C [4]: 108%
viability, T/C [5]: 118%
viability, T/C [6]: 130%
viability, T/C [7]: 113%
viability, T/C [8]: 97.2%
viability, T/C [9]: 112%
viability, T/C [10]: 109%
viability, T/C [11]: 112%
viability, T/C [12]: 113%
viability, T/C [13]: 105%
viability, T/C [14]: 110%
viability, T/C [15]: 102%
viability, T/C [16]: 118%
viability, T/C [17]: 112%
viability, T/C [18]: 115%
viability, T/C [19]: 115%
viability, T/C [20]: 89%
viability, T/C [21]: 113%
viability, T/C [22]: 114%
viability, T/C [23]: 113%
viability, T/C [24]: 116%
viability, T/C [25]: 112%
viability, T/C [26]: 98.5%
viability, T/C [27]: 98.3%
viability, T/C [28]: 104%
viability, T/C [29]: 107%
viability, T/C [30]: 104%
viability, T/C [31]: 103%
viability, T/C [32]: 81%
viability, T/C [33]: 78.8%
viability, T/C [34]: 86.5%
viability, T/C [35]: 91.8%
viability, T/C [36]: 85.1%

CC(=O)c1c(C)c2cnc(Nc3ccc(N4CCNCC4)cn3)nc2n(C2CCCC2)c1=O + COc1c(OCCCN2CCOCC2)ccc2c3n(c(=NC(=O)c4cnc(N)nc4)nc12)CCN3
pIC50 (second compound 0.00316 µM): < 7.00
pIC50 (second compound 0.01 µM): < 7.00
pIC50 (second compound 0.0316 µM): < 7.00
pIC50 (second compound 0.1 µM): < 7.00
pIC50 (second compound 0.316 µM): > 9.50
pIC50 (second compound 1 µM): > 9.50
viability, T/C (second compound 0.00316 µM, first compound 0.000316 µM): 106%
viability, T/C (second compound 0.00316 µM, first compound 0.001 µM): 98.1%
viability, T/C (second compound 0.00316 µM, first compound 0.00316 µM): 99.6%
viability, T/C (second compound 0.00316 µM, first compound 0.01 µM): 101%
viability, T/C (second compound 0.00316 µM, first compound 0.0316 µM): 117%
viability, T/C (second compound 0.00316 µM, first compound 0.1 µM): 98.9%
viability, T/C (second compound 0.01 µM, first compound 0.000316 µM): 98.2%
viability, T/C (second compound 0.01 µM, first compound 0.001 µM): 110%
viability, T/C (second compound 0.01 µM, first compound 0.00316 µM): 99.8%
viability, T/C (second compound 0.01 µM, first compound 0.01 µM): 101%
viability, T/C (second compound 0.01 µM, first compound 0.0316 µM): 103%
viability, T/C (second compound 0.01 µM, first compound 0.1 µM): 107%
viability, T/C (second compound 0.0316 µM, first compound 0.000316 µM): 89.7%
viability, T/C (second compound 0.0316 µM, first compound 0.001 µM): 100%
viability, T/C (second compound 0.0316 µM, first compound 0.00316 µM): 106%
viability, T/C (second compound 0.0316 µM, first compound 0.01 µM): 99.1%
viability, T/C [1]: 89.4%
viability, T/C [2]: 94.2%
viability, T/C (second compound 0.1 µM, first compound 0.000316 µM): 68.6%
viability, T/C (second compound 0.1 µM, first compound 0.001 µM): 66.8%
viability, T/C (second compound 0.1 µM, first compound 0.00316 µM): 64.8%
viability, T/C (second compound 0.1 µM, first compound 0.01 µM): 61%
viability, T/C [7]: 70.1%
viability, T/C [8]: 68.4%
viability, T/C (second compound 0.316 µM, first compound 0.000316 µM): 23.5%
viability, T/C (second compound 0.316 µM, first compound 0.001 µM): 23.2%
viability, T/C (second compound 0.316 µM, first compound 0.00316 µM): 22.4%
viability, T/C (second compound 0.316 µM, first compound 0.01 µM): 26.3%
viability, T/C [13]: 27.6%
viability, T/C [14]: 19.6%
viability, T/C (second compound 1 µM, first compound 0.000316 µM): 3.72%
viability, T/C (second compound 1 µM, first compound 0.001 µM): 3.62%
viability, T/C (second compound 1 µM, first compound 0.00316 µM): 3.08%
viability, T/C (second compound 1 µM, first compound 0.01 µM): 4%
viability, T/C [19]: 4.37%
viability, T/C [20]: 2.62%
